Experimental data from patent publication US20230027295A1, “FXIA INHIBITORS AND PREPARATION METHOD THEREFOR AND PHARMACEUTICAL USE THEREOF” (Shenzhen Salubris Pharmaceuticals Co., Ltd., priority 2019, published 2023).

Key:
human plasma = assay: Anticoagulant effect on human plasma in vitro (APTT determination); format: biochemical; conditions: for aPTT EC1.5×: concentration giving APTT of 1.5× blank control; for aPTT EC2×: concentration giving APTT of 2× blank control
Procedure: Example 51: Determination of the Anticoagulant Effect of the Compounds of the Present Invention on Human Plasma In Vitro
Plasma: Human blood was collected in a vacuum blood collection tube containing 3.2% sodium citrate (volume ratio 1:9), centrifuged at 3000 rpm for 10 min at room temperature, and the plasma was collected, divided into EP tubes, and stored at −80° C.
Reagents: APTT assay kit (Activated partial thromboplastin time assay kit, mindray), calcium chloride solution.
Instrument: coagulation meter (mindray, C2000-A)
The frozen human plasma in aliquots was thawed at room temperature and mixed well. 10 mM test compound dissolved in 100% DMSO was diluted with 100% DMSO to 1500, 750, 375, 187.5, 93.75, 46.88, 23.44, 11.72 μM. 98 μL of human plasma was added to a 1.5 mL EP tube, then 2 μL of compounds of different concentrations were added, and 2 μL of 100% DMSO was added for the blank group. They were incubated under a water bath at 37° C. for 10 min, and the samples were placed in the corresponding position of the coagulation analyzer to conduct APTT determination of the compounds.
Curve fitting was performed with GraphPad Prism software, and EC1.5× and EC2× values were calculated respectively, i.e., the concentrations of the compounds corresponding to the APTT of 1.5× and 2× blank control group.

hERG = molecular target: T1, hERG (Homo sapiens, UniProt Q12809); assay: hERG current in HEK293-hERG stably transfected cells; format: cell-based; conditions: human, HEK293 cells stably transfected with hERG; at 10 μM; read-out: hERG peak current inhibition
T1 construct: host or cells: HEK293
Procedure: (§1) Example 56: Investigation on hERG of the Compound of the Present Invention
(§2) HEK293-hERG stably transfected cell line (invitrogen). DMEM medium (Gibco), HEPES (invitrogen), Blasticidin (invitrogen)
(§3) HEK293-hERG stably transfected cells were used for experiments when they were cultured to a degree of polymerization of 40%-80%. First, a blank solvent was applied to the cells to establish a baseline. […] In the presence of test compounds, hERG currents were recorded for approximately 5 minutes to reach a steady state, and then 5 sweep frequencies were captured. To ensure good performance of cultured cells and manipulations, the same batch of cells was also tested using the positive control dofetilide.
(§4) Peak current inhibition=(1−Peak tail current compound/Peak tail current vehicle)*100

hERG current = molecular target: T2, hERG current (Homo sapiens, UniProt Q12809); assay: as above; format: cell-based; conditions: HEK293-hERG cells
T2 construct: host or cells: HEK293
Procedure: as §1, §2, §3, §4

CYP2D6 = molecular target: T3, CYP2D6 (Homo sapiens, UniProt P10635); assay: CYP enzyme inhibition in liver microsomes: CYP2D6; format: in vitro ADME; conditions: 0.2 mg/mL liver microsomes
T3 construct: Liver microsomes (150-donor, Corning, Cat. 452117; Lot; 38292), NADPH; tissue Corning 452117; host or cells: liver microsomes, 150-donor pool
Procedure: (§5) Example 55: Investigation of CYP Enzyme Inhibition by the Compounds of the Present Invention Liver microsomes (150-donor, Corning, Cat. 452117; Lot. 38292), NADPH. A 0.2 mg/mL microsome system was prepared, each test substance and substrate were added, and the final concentration of the test substance was 50 μM. After pre-incubating for 8 min, 10 mM NADPH was added to start the reaction, and the final concentration of NADPH was 1 mM. After a period of incubation, an internal standard such as methanol was added to stop the reaction. The amount of substrate metabolites generated in each reaction well was detected. Data processing: Taking the metabolite generation in the blank well as 100%, the reduction of metabolite generation in each well of the test substance was calculated, and the inhibition rate was calculated.

CYP1A2 = molecular target: T4, CYP1A2 (Homo sapiens, UniProt P05177); assay: CYP enzyme inhibition in liver microsomes: CYP1A2; format: in vitro ADME; conditions: 0.2 mg/mL liver microsomes
T4 construct: Liver microsomes (150-donor, Corning, Cat. 452117; Lot; 38292), NADPH; tissue Corning 452117; host or cells: liver microsomes, 150-donor pool
T4 sequence (P05177 1-516): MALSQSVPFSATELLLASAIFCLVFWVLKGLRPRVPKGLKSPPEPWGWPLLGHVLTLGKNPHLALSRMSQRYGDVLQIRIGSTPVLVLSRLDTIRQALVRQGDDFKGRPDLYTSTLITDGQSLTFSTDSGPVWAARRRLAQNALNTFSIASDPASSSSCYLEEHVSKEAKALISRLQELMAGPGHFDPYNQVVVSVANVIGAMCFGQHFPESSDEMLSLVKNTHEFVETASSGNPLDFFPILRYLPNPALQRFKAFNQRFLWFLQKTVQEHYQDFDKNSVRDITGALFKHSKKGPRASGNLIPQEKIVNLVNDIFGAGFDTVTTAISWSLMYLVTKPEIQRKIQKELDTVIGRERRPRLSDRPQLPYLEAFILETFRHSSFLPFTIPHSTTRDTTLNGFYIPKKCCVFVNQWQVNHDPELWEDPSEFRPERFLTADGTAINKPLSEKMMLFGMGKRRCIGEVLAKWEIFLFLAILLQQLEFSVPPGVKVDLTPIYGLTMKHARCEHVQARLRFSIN
Procedure: as §5

CYP2B6 = molecular target: T5, CYP2B6 (Homo sapiens, UniProt P20813); assay: CYP enzyme inhibition in liver microsomes: CYP2B6; format: in vitro ADME; conditions: 0.2 mg/mL liver microsomes
T5 construct: Liver microsomes (150-donor, Corning, Cat. 452117; Lot; 38292), NADPH; tissue Corning 452117; host or cells: liver microsomes, 150-donor pool
T5 sequence (P20813 1-491): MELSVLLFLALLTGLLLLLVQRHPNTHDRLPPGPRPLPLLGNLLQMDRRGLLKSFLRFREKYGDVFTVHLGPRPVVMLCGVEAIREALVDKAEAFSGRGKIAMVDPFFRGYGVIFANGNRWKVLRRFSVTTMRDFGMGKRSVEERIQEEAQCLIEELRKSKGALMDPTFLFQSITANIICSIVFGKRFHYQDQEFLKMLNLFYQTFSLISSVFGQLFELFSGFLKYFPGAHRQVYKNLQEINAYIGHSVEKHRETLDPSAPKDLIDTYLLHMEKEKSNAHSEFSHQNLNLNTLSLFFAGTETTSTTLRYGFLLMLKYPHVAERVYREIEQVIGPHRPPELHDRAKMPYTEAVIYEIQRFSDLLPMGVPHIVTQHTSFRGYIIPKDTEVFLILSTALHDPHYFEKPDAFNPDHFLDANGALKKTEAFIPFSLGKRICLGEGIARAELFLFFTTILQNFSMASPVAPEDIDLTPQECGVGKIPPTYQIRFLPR
Procedure: as §5

T2 sequence (Q12809 whole entry): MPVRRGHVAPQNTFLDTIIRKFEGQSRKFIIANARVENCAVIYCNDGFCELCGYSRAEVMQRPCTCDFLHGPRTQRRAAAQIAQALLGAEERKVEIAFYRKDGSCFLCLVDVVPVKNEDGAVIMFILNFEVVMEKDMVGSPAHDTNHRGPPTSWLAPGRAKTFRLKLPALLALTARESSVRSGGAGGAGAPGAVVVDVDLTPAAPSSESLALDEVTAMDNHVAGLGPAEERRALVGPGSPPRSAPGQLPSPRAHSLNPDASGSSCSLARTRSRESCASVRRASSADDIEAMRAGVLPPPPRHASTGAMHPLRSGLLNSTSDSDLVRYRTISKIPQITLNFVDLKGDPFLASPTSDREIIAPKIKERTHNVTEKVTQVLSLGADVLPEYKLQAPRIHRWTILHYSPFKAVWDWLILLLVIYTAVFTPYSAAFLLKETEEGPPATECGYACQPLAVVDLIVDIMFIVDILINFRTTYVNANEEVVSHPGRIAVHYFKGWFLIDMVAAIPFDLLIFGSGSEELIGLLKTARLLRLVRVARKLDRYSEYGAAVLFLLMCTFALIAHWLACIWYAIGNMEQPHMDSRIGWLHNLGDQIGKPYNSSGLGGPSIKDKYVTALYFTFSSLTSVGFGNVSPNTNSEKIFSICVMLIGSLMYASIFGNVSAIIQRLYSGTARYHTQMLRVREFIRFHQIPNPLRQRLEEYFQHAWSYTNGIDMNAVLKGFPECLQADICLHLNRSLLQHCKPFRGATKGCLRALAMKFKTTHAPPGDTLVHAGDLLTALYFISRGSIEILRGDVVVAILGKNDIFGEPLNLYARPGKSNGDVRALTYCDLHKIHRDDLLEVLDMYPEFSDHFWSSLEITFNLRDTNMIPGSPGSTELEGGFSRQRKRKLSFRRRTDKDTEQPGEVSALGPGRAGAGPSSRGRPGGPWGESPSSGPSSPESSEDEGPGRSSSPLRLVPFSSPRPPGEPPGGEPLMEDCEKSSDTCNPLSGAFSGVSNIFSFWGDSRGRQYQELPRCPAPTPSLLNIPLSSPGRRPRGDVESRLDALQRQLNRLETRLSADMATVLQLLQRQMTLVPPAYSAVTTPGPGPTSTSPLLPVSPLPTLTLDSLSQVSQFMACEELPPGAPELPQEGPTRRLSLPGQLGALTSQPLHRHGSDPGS
T1 sequence (Q12809 whole entry): as above
T3 sequence (P10635 whole entry): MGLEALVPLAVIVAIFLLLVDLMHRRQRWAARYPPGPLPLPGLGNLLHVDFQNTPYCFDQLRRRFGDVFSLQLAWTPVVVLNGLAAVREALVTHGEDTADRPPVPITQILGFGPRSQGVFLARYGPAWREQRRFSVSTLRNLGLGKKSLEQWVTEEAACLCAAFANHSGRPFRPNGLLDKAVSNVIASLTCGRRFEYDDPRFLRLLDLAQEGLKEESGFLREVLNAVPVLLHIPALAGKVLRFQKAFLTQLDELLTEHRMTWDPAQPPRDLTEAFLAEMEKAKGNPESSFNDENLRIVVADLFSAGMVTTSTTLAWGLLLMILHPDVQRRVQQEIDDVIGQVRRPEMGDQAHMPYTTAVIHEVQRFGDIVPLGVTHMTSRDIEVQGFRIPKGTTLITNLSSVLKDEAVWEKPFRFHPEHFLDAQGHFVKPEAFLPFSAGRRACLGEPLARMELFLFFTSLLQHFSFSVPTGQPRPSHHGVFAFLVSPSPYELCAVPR

Row | Structure (SMILES) | aPTT EC1.5× (human plasma) [µM] | aPTT EC2× (human plasma) [µM] | inhibition at 5 min, 10 µM (hERG) [%] | IC50 (hERG current) [µM] | IC50 (CYP2D6) [µM] | IC50 (CYP1A2) [µM] | IC50 (CYP2B6) [µM]
1 | COc1nn([C@@H](Cc2ccccc2)C(=O)Nc2ccc(C(=O)O)cc2)c(=O)cc1-c1cc(Cl)ccc1C(C)=O [Example 19, (S)-4-(2-(4-(2-acetyl-5-chlorophenyl)-3-methoxy-6-oxopyridazin-1(6H)-yl)-3-phenylpropanamido)benzoic acid] | 0.641 | 2.817 | 1.17 | > 10 | > 50 | > 50 | > 50
2 | CCC(=O)c1ccc(Cl)cc1-c1cc(=O)n([C@@H](Cc2ccccc2)C(=O)Nc2ccc(C(=O)O)cc2)nc1OC [Example 32] | 0.483 | 1.319 | 2.8 | > 10 | > 50 | > 50 | > 50
